Measured values published in article PMC9501548, “Synthesis of Potential Antiviral Agents for SARS-CoV-2 Using Molecular Hybridization Approach” (Molecules, 2022).
“And” between values parts separate entries of the source, which are not always exact repeats. Equal entries are not always repeated. Where two headings read alike, the source gives them in different places.

What was measured:
in vitro = details: Chlorocebus aethiops (African green monkey)
[1] = system: SARS-CoV-2 (hCoV-19/Egypt/NRC-03/2020); experiment: Anti-SARS-CoV-2 IC50 determination in Vero-E6 cells (inhibition of virus-induced cytopathic effect, crystal violet); format: cell-based; details: for IC50: Severe acute respiratory syndrome coronavirus 2, Vero C1008, SARS-CoV-2 in Vero-E6 cells, 72 h, CPE reduction; for SI: selectivity index, ratio of CC50 relative to IC50
[2] = system: SARS-CoV-2 (hCoV-19/Egypt/NRC-03/2020); parameters: method as in PMID 34775204; details: standard reference, cited from earlier work
VERO-E6 cells = system: VERO-E6 cells; parameters: method as in PMID 34775204; details: standard reference; cited from earlier work

SMILES: O=C1C(=Cc2cn(C/C=C/COc3cc(C(F)(F)F)nc4ccccc34)c3ccccc23)SC(=S)N1CCc1ccccc1 (mixture of isomers) [10a, (E/Z)-3-Phenethyl-2-thioxo-5-((1-((E)-4-((2-(trifluoromethyl)quinolin-4-yl)oxy)but-2-en-1-yl)-1H-indol-3-yl)methylene)thiazolidin-4-one]
- melting point: 179 to 181 °C
- CC50 at 24 h (in vitro): 370 µg/mL

SMILES: Cc1ccc2nc(C(F)(F)F)cc(OC/C=C/Cn3cc(C=C4SC(=S)N(CCc5ccccc5)C4=O)c4ccccc43)c2c1 (mixture of isomers) [10b, (E/Z)-5-((1-((E)-4-((6-Methyl-2-(trifluoromethyl)quinolin-4-yl)oxy)but-2-en-1-yl)-1H-indol-3-yl)methylene)-3-phenethyl-2-thioxothiazolidin-4-one]
- melting point: 168 to 170 °C
- CC50 at 24 h (in vitro): 290 µg/mL

SMILES: O=C1C(=Cc2cn(CCCCOc3cc(C(F)(F)F)nc4ccc(F)cc34)c3ccccc23)SC(=S)N1CCc1ccccc1 (mixture of isomers) [9e, (E/Z)-5-((1-(4-((6-Fluoro-2-(trifluoromethyl)quinolin-4-yl)oxy)butyl)-1H-indol-3-yl)methylene)-3-phenethyl-2-thioxothiazolidin-4-one]
- IC50 [1]: 276 µg/mL and 424 µM
- SI [1]: 1.1
- melting point: 160 to 162 °C
- CC50 at 24 h (in vitro): 305 µg/mL and 469 µM

SMILES: CCN(CCO)CCCC(C)Nc1ccnc2cc(Cl)ccc12 (stereo not shown) [Hydroxychloroquine]
- IC50 ([2]; anti-SARS-CoV-2): 29.2 µM
- SI ([2]; ratio of CC50 relative to IC50): 12.2
- CC50 (VERO-E6 cells): 356 µM

SMILES: Cc1ccc2nc(C(F)(F)F)cc(OCCCCn3cc(C=C4SC(=S)N(CCc5ccccc5)C4=O)c4ccccc43)c2c1 (mixture of isomers) [9g, (E/Z)-5-((1-(4-((6-Methyl-2-(trifluoromethyl)quinolin-4-yl)oxy)butyl)-1H-indol-3-yl)methylene)-3-phenethyl-2-thioxothiazolidin-4-one]
- melting point: 175 to 177 °C
- CC50 at 24 h (in vitro): 591 µg/mL

SMILES: O=C1C(=Cc2cn(CCCOc3cc(C(F)(F)F)nc4ccc(Cl)cc34)c3ccccc23)SC(=S)N1CCc1ccccc1 (mixture of isomers) [9b, (E/Z)-5-((1-(3-((6-Chloro-2-(trifluoromethyl)quinolin-4-yl)oxy)propyl)-1H-indol-3-yl)methylene)-3-phenethyl-2-thioxothiazolidin-4-one]
- melting point: 176 to 179 °C
- CC50 at 24 h (in vitro): 227 µg/mL

SMILES: O=C1C(=Cc2cn(CCCCOc3cc(C(F)(F)F)nc4ccc(Cl)cc34)c3ccccc23)SC(=S)N1CCc1ccccc1 (mixture of isomers) [9f, (E/Z)-5-((1-(4-((6-Chloro-2-(trifluoromethyl)quinolin-4-yl)oxy)butyl)-1H-indol-3-yl)methylene)-3-phenethyl-2-thioxothiazolidin-4-one]
- IC50 [1]: 109 µg/mL and 164 µM
- SI [1]: 3.4
- melting point: 181 to 183 °C
- CC50 at 24 h (in vitro): 370 µg/mL and 555 µM

SMILES: O=C1C(=Cc2cn(CCCCCCOc3cc(C(F)(F)F)nc4ccc(Cl)cc34)c3ccccc23)SC(=S)N1CCc1ccccc1 (mixture of isomers) [9j, (E/Z)-5-((1-(6-((6-Chloro-2-(trifluoromethyl)quinolin-4-yl)oxy)hexyl)-1H-indol-3-yl)methylene)-3-phenethyl-2-thioxothiazolidin-4-one]
- melting point: 184 to 186 °C
- CC50 at 24 h (in vitro): 380 µg/mL

SMILES: Cc1ccc2nc(C(F)(F)F)cc(OCCCn3cc(C=C4SC(=S)N(CCc5ccccc5)C4=O)c4ccccc43)c2c1 (mixture of isomers) [9c, (E/Z)-5-((1-(3-((6-Methyl-2-(trifluoromethyl)quinolin-4-yl)oxy)propyl)-1H-indol-3-yl)methylene)-3-phenethyl-2-thioxothiazolidin-4-one]
- melting point: 182 to 184 °C
- CC50 at 24 h (in vitro): 310 µg/mL

SMILES: O=C1C(=Cc2cn(CCCCOc3cc(C(F)(F)F)nc4ccccc34)c3ccccc23)SC(=S)N1CCc1ccccc1 (mixture of isomers) [9d, (E/Z)-3-Phenethyl-2-thioxo-5-((1-(4-((2-(trifluoromethyl)quinolin-4-yl)oxy)butyl)-1H-indol-3-yl)methylene)thiazolidin-4-one]
- IC50 [1]: 257 µg/mL and 407 µM
- SI [1]: 1.1
- melting point: 157 to 159 °C
- CC50 at 24 h (in vitro): 294 µg/mL and 465 µM

SMILES: Cc1ccc2nc(C(F)(F)F)cc(OCCCCCCn3cc(C=C4SC(=S)N(CCc5ccccc5)C4=O)c4ccccc43)c2c1 (mixture of isomers) [9k, (E/Z)-5-((1-(6-((6-Methyl-2-(trifluoromethyl)quinolin-4-yl)oxy)hexyl)-1H-indol-3-yl)methylene)-3-phenethyl-2-thioxothiazolidin-4-one]
- IC50 [1]: 160 µg/mL and 238 µM
- SI [1]: 1.3
- melting point: 148 to 150 °C
- CC50 at 24 h (in vitro): 201 µg/mL and 299 µM

SMILES: O=C1C(=Cc2cn(CCCOc3cc(C(F)(F)F)nc4ccccc34)c3ccccc23)SC(=S)N1CCc1ccccc1 (mixture of isomers) [9a, (E/Z)-3-Phenethyl-2-thioxo-5-((1-(3-((2-(trifluoromethyl)quinolin-4-yl)oxy)propyl)-1H-indol-3-yl)methylene)thiazolidin-4-one]
- melting point: 185 to 187 °C
- CC50 at 24 h (in vitro): 210 µg/mL

SMILES: O=C1C(=Cc2cn(CCCCCCOc3cc(C(F)(F)F)nc4ccc(F)cc34)c3ccccc23)SC(=S)N1CCc1ccccc1 (mixture of isomers) [9i, (E/Z)-5-((1-(6-((6-Fluoro-2-(trifluoromethyl)quinolin-4-yl)oxy)hexyl)-1H-indol-3-yl)methylene)-3-phenethyl-2-thioxothiazolidin-4-one]
- melting point: 185 to 187 °C
- CC50 at 24 h (in vitro): 262 µg/mL

SMILES: O=C1C(=Cc2cn(CCCCCCOc3cc(C(F)(F)F)nc4ccccc34)c3ccccc23)SC(=S)N1CCc1ccccc1 (mixture of isomers) [9h, (E/Z)-3-Phenethyl-2-thioxo-5-((1-(6-((2-(trifluoromethyl)quinolin-4-yl)oxy)hexyl)-1H-indol-3-yl)methylene)thiazolidin-4-one]
- melting point: 180 to 182 °C
- CC50 at 24 h (in vitro): 258 µg/mL
